Data taken from US9114137B2, “Derivatives of pyrazolophenyl-benzenesulfonamide compounds and use thereof as antitumor agents” (Nerviano Medical Sciences S.R.L., priority 2010, dated 2015).
Read-outs that look alike come from different tables or passages of the source.

What was measured:
Type in all cases: cell-based
[1] = test system: human melanoma cells A375 (with a mutated B-RAF); assay: In vitro cell proliferation assay, A375; conditions: A-375
Description: (§1) Exponentially growing human melanoma cells A375 (with a mutated B-RAF) and human melanoma cells Mewo (with wild-type B-Raf) were seeded and incubated at 37° C. in a humidified 5% CO2 atmosphere. After 24 hours, scalar doses of the compound were added to the medium and cells incubated for 72 hours. At the end of treatment, cells were washed and counted. Cell number was determined by a cellular adenosine triphosphate monitoring system. Cell proliferation was compared to control cells and the concentration inhibiting cell growth by 50% was calculated.

[2] = test system: human melanoma cells Mewo (with wild-type B-Raf); assay: In vitro cell proliferation assay, Mewo; conditions: 72 hours incubation, cell number by ATP monitoring
Description: as §1

[3] = test system: p-MAPK (T202/Y204) in A375 human melanoma cells, having a mutated B-RAF; assay: p-MAPK (T202/Y204) ArrayScan assay; conditions: A-375, 1.5 or 2 hours treatment, cytoplasmatic p-MAPK fluorescence, read-out: Array Scan A375 IC50
Description: A375 human melanoma cells, having a mutated B—RAF, were seeded in 384-well poly-lysine coated plates (Matrix) at a density of 1000 cells/well with appropriate medium supplemented with 10% FCS and incubated for 16-24 hours. Cells were treated for 1.5 or 2 hours with increasing doses of compounds (starting dose 10 μM, dilution factor 2.5). At the end of the treatment cells were fixed with p-formaldehyde 3.7% for 15-30 min, then washed twice with D-PBS (80 μl/well) and permeabilized with D-PBS containing 0.1% Triton X-100 and 1% BSA (Sigma-Aldrich) for 15 minutes at room temperature (staining solution). Anti-phospho-MAPK (T202/Y204) monoclonal antibody E10 (Cell Signaling, cat. #9106) diluted 1:100 was added in staining solution and incubated for 1 hour at 37° C. After removal of the primary antibody solution, the anti-mouse Cy™2-conjugated (Green) secondary antibody (Amersham) diluted 1:500 in staining solution containing 2 μg/ml DAPI was added. The plate was incubated for 1 hour at 37° C., washed twice and then red with Cellomics' ArrayScan VTI (4 fields/well, CytoNucTrans algorithm).
The parameter “MEAN_RingAvgIntenCh2,” which measures the mean cytoplasmatic fluorescence intensity associated to p-MAPK staining, is reported as the final result.

[4] = A375 human melanoma cells (mutated B-RAF), 72 hours incubation, cell number by ATP monitoring, read-out: Proliferation A375 IC50

IC50 [1, 4] [µM]	IC50 [2] [µM]	IC50 [3] [µM]	IC50 ([1]; Homo sapiens, value quoted in text for the reference compound, no unit or cell line printed, read-out: antiproliferative activity) [µM]	Structure (SMILES)
0.017	> 10	< 0.016	–	Nc1nccc(-c2cn(CCF)nc2-c2cccc(NS(=O)(=O)c3cc(F)ccc3F)c2F)n1 [Compound 11, N-{3-[4-(2-Amino-pyrimidin-4-yl)-1-(2-fluoro-ethyl)-1H-pyrazol-3-yl]-2-fluoro-phenyl}-2,5-difluoro-benzenesulfonamide]
0.005	> 10	< 0.016	–	CC(C)n1cc(-c2ccncc2)c(-c2cccc(NS(=O)(=O)c3cc(F)ccc3F)c2F)n1 [Compound 9, 2,5-Difluoro-N-[2-fluoro-3-(1-isopropyl-4-pyridin-4-yl-1H-pyrazol-3-yl)-phenyl]-benzenesulfonamide]
< 0.016	> 10	< 0.016	–	CC(C)C(=O)Nc1cc(-c2cn(C3CCOCC3)nc2-c2cccc(NS(=O)(=O)c3cc(F)ccc3F)c2F)ccn1 [Compound 30, N-{4-[3-(3-{[(2,5-difluorophenyl)sulfonyl]amino}-2-fluorophenyl)-1-(tetrahydro-2H-pyran-4-yl)-1H-pyrazol-4-yl]pyridin-2-yl}-2-methylpropanamide]
0.008	> 10	< 0.016	–	CN1CCC(n2cc(-c3ccncc3)c(-c3cccc(NS(=O)(=O)c4cc(F)ccc4F)c3F)n2)CC1 [Compound 5, 2,5-Difluoro-N-{2-fluoro-3-[1-(1-methyl-piperidin-4-yl)-4-pyridin-4-yl-1H-pyrazol-3-yl]-phenyl}-benzenesulfonamide]
0.012	> 10	< 0.016	–	O=S(=O)(Nc1cccc(-c2nn(C3CCN(C4CC4)CC3)cc2-c2ccncc2)c1F)c1cc(F)ccc1F [Compound 2, N-{3-[1-(1-Cyclopropyl-piperidin-4-yl)-4-pyridin-4-yl-1H-pyrazol-3-yl]-2-fluoro-phenyl}-2,5-difluoro-benzenesulfonamide]
< 0.016	> 10	< 0.016	–	O=S(=O)(Nc1cccc(-c2nn(C3CCC(F)(F)CC3)cc2-c2ccncc2)c1F)c1cc(F)ccc1F [Compound 25, N-{3-[1-(4,4-difluorocyclohexyl)-4-(pyridin-4-yl)-1H-pyrazol-3-yl]-2-fluorophenyl}-2,5-difluorobenzenesulfonamide]
0.007	> 10	< 0.016	–	CC(=O)Nc1cc(-c2cn(C3CCOCC3)nc2-c2cccc(NS(=O)(=O)c3cc(F)ccc3F)c2F)ccn1 [Compound 26, N-{4-[3-(3-{[(2,5-difluorophenyl)sulfonyl]amino}-2-fluorophenyl)-1-(tetrahydro-2H-pyran-4-yl)-1H-pyrazol-4-yl]pyridin-2-yl}acetamide]
0.003	> 10	< 0.016	–	CC(C)n1cc(-c2ccnc(N)n2)c(-c2cccc(NS(=O)(=O)c3cc(F)ccc3F)c2F)n1 [Compound 10, N-{3-[4-(2-Amino-pyrimidin-4-yl)-1-isopropyl-1H-pyrazol-3-yl]-2-fluoro-phenyl}-2,5-difluoro-benzenesulfonamide]
0.017	> 10	< 0.016	–	CC(C)n1cc(-c2ccnc(N)c2)c(-c2cccc(NS(=O)(=O)c3cc(F)ccc3F)c2F)n1 [Compound 12, N-{3-[4-(2-Amino-pyridin-4-yl)-1-isopropyl-1H-pyrazol-3-yl]-2-fluoro-phenyl}-2,5-difluoro-benzenesulfonamide]
< 0.016	> 10	< 0.016	–	O=S(=O)(Nc1cccc(-c2nn(CCF)cc2-c2ccncc2)c1F)c1cc(F)ccc1F [Compound 7, 2,5-Difluoro-N-{2-fluoro-3-[1-(2-fluoro-ethyl)-4-pyridin-4-yl-1H-pyrazol-3-yl]-phenyl}-benzenesulfonamide]
< 0.016	> 10	< 0.016	–	CC(=O)Nc1cc(-c2cn(C3CCN(C)CC3)nc2-c2cccc(NS(=O)(=O)c3cc(F)ccc3F)c2F)ccn1 [Compound 31, N-{4-[3-(3-{[(2,5-difluorophenyl)sulfonyl]amino}-2-fluorophenyl)-1-(1-methylpiperidin-4-yl)-1H-pyrazol-4-yl]pyridin-2-yl}acetamide]
0.048	> 10	< 0.016	0.084	CCn1cc(-c2ccncc2)c(-c2cccc(NS(=O)(=O)c3cc(F)ccc3F)c2F)n1 [Ref. cpd, N-{3-[1-ethyl-4-(pyridin-4-yl)-1H-pyrazol-3-yl]-2-fluorophenyl}-2,5-difluorobenzenesulfonamide, reference compound]
0.028	> 10	< 0.016	–	Nc1cc(-c2cn(C3CCCC3)nc2-c2cccc(NS(=O)(=O)c3cc(F)ccc3F)c2F)ccn1 [Compound 17, N-{3-[4-(2-Amino-pyridin-4-yl)-1-cyclopentyl-1H-pyrazol-3-yl]-2-fluoro-phenyl}-2,5-difluoro-benzenesulfonamide]
< 0.016	> 10	< 0.016	–	Nc1cc(-c2cn(CCF)nc2-c2cccc(NS(=O)(=O)c3cc(F)ccc3F)c2F)ccn1 [Compound 13, N-{3-[4-(2-Amino-pyridin-4-yl)-1-(2-fluoro-ethyl)-1H-pyrazol-3-yl]-2-fluoro-phenyl}-2,5-difluoro-benzenesulfonamide]
0.034	> 10	< 0.016	–	Nc1cc(-c2cn(C3CCOCC3)nc2-c2cccc(NS(=O)(=O)c3cc(F)ccc3F)c2F)ccn1 [Compound 14, N-{3-[4-(2-Amino-pyridin-4-yl)-1-(tetrahydro-pyran-4-yl)-1H-pyrazol-3-yl]-2-fluoro-phenyl}-2,5-difluoro-benzenesulfonamide]
